From patent US6737383B1, “Herbicidal oxadiazolidines” (priority 1999, dated 2004)

Assays:
[1] = system: bedstraw; assay: Test B pre/postemergence bedstraw; type: in vivo, Galium aparine
Outline: (§1)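 Response is a visual 0-to-10 score relative to untreated plants, where 0 means no effect and 10 means complete control, taken twelve to sixteen days after application. Treatments went onto soil at planting and onto foliage of 1- to 4-leaf plants, using a surfactant-containing non-phytotoxic solvent.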

[2] = system: blackgrass; assay: Test B pre/postemergence blackgrass; type: in vivo, Alopecurus myosuroides
Outline: as §1

[3] = system: surinam grass; assay: Test B pre/postemergence surinam grass; type: in vivo, Brachiaria decumbens
Outline: as §1

[4] = system: cocklebur; assay: Test B pre/postemergence cocklebur; type: in vivo, Xanthium strumarium
Outline: as §1

[5] = system: corn; assay: Test B pre/postemergence corn; type: in vivo, Zea mays
Outline: as §1

[6] = system: crabgrass; assay: Test B pre/postemergence crabgrass; type: in vivo, Digitaria sanguinalis
Outline: as §1

[7] = system: giant foxtail; assay: Test B pre/postemergence giant foxtail; type: in vivo, Setaria faberii
Outline: as §1

[8] = system: morningglory; assay: Test B pre/postemergence morningglory; type: in vivo, Ipomoea hederacea
Outline: as §1

[9] = system: pigweed; assay: Test B pre/postemergence pigweed; type: in vivo, Amaranthus retroflexus
Outline: as §1

[10] = system: rape; assay: Test B pre/postemergence rape; type: in vivo, Brassica napus
Outline: as §1

[11] = system: soybean; assay: Test B pre/postemergence soybean; type: in vivo, Glycine max
Outline: as §1

[12] = system: sugar beet; assay: Test B pre/postemergence sugar beet; type: in vivo, Beta vulgaris
Outline: as §1

[13] = system: velvetleaf; assay: Test B pre/postemergence velvetleaf; type: in vivo, Abutilon theophrasti
Outline: as §1

[14] = system: wheat; assay: Test B pre/postemergence wheat; type: in vivo, Triticum aestivum
Outline: as §1

[15] = system: wild oat; assay: Test B pre/postemergence wild oat; type: in vivo, Avena fatua
Outline: as §1

[16] = system: purple nutsedge; assay: Test B pre/postemergence purple nutsedge; type: in vivo, Cyperus rotundus
Outline: as §1

[17] = Postemergence, Rate 62 g/ha, scale of 0 to 10, 0 is no effect, 10 is complete control
[18] = Postemergence, Rate 125 g/ha, scale 0 to 10, 0 is no effect, 10 is complete control
[19] = Postemergence, Rate 500 g/ha, scale 0 to 10, 0 is no effect, 10 is complete control
[20] = Preemergence, Rate 62 g/ha, scale 0 to 10 (0 no effect, 10 complete control)
[21] = Preemergence, Rate 125 g/ha, scale 0 to 10, 0 is no effect, 10 is complete control
[22] = Preemergence, Rate 500 g/ha, scale of 0 to 10 where 0 is no effect and 10 is complete control
[23] = Rate 250 g/ha, Postemergence, scale of 0 to 10 where 0 is no effect and 10 is complete control
[24] = Preemergence, Rate 62 g/ha, scale of 0 to 10 where 0 is no effect and 10 is complete control
[25] = Preemergence, Rate 125 g/ha, scale of 0 to 10 where 0 is no effect and 10 is complete control
[26] = Preemergence, Rate 250 g/ha, scale 0 to 10 (0 no effect, 10 complete control)

CCC(=O)Cn1c(=O)on(C(=O)N(c2ccc(Cl)cc2)C(C)C)c1=O [Compound 553]
Bedstraw plant response rating [1, 17]: 0
Bedstraw plant response rating [1, 18]: 2
Plant response rating, Bedstraw [1, 19]: 7
Bedstraw plant response rating [1, 20]: 0
Bedstraw plant response rating [1, 21]: 0
Bedstraw plant response rating (0 to 10 scale) ([1]; Preemergence, Rate 250 g/ha): 2
Bedstraw plant response rating [1, 22]: 10
Plant response rating, Bedstraw [1, 23]: 2
Blackgrass plant response rating [2, 17]: 0
Blackgrass plant response rating [2, 18]: 0
Plant response rating, Blackgrass [2, 19]: 7
Blackgrass plant response rating [2, 20]: 7
Blackgrass plant response rating [2, 21]: 7
Blackgrass plant response rating (0 to 10 scale) ([2]; Preemergence, Rate 250 g/ha): 7
Plant response rating, Blackgrass [2, 23]: 3
B. signalgrass plant response rating [3, 17]: 0
B. signalgrass plant response rating [3, 18]: 0
Plant response rating, B. signalgrass [3, 19]: 5
B. signalgrass plant response rating [3, 20]: 6
B. signalgrass plant response rating [3, 21]: 9
B. signalgrass plant response rating (0 to 10 scale, 0 is no effect, 10 is complete control) ([3]; Preemergence, Rate 250 g/ha): 9
B. signalgrass plant response rating [3, 22]: 8
Plant response rating, B. signalgrass [3, 23]: 3
Cocklebur plant response rating [4, 17]: 0
Plant response rating, Cocklebur [4, 19]: 2
Cocklebur plant response rating [4, 21]: 0
Cocklebur plant response rating (0 to 10 scale) ([4]; Preemergence, Rate 250 g/ha): 0
Cocklebur plant response rating [4, 22]: 10
Plant response rating, Cocklebur [4, 23]: 0
Corn plant response rating [5, 17]: 0
Corn plant response rating [5, 18]: 0
Plant response rating, Corn [5, 19]: 0
Corn plant response rating [5, 20]: 0
Corn plant response rating [5, 21]: 0
Corn plant response rating (0 to 10 scale) ([5]; Preemergence, Rate 250 g/ha): 0
Corn plant response rating [5, 22]: 3
Plant response rating, Corn [5, 23]: 0
Crabgrass plant response rating [6, 17]: 0
Crabgrass plant response rating [6, 18]: 3
Plant response rating, Crabgrass [6, 19]: 9
Crabgrass plant response rating [6, 20]: 10
Crabgrass plant response rating [6, 21]: 9
Crabgrass plant response rating (0 to 10 scale) ([6]; Preemergence, Rate 250 g/ha): 10
Crabgrass plant response rating [6, 22]: 10
Plant response rating, Crabgrass [6, 23]: 8
Giant foxtail plant response rating [7, 17]: 0
Giant foxtail plant response rating [7, 18]: 7
Plant response rating, Giant foxtail [7, 19]: 7
Giant foxtail plant response rating [7, 20]: 10
Giant foxtail plant response rating [7, 21]: 10
Giant foxtail plant response rating (0 to 10 scale) ([7]; Preemergence, Rate 250 g/ha): 10
Giant foxtail plant response rating [7, 22]: 10
Plant response rating, Giant foxtail [7, 23]: 6
Morningglory plant response rating [8, 17]: 0
Morningglory plant response rating [8, 18]: 0
Plant response rating, Morningglory [8, 19]: 0
Morningglory plant response rating [8, 20]: 0
Morningglory plant response rating [8, 21]: 0
Morningglory plant response rating (0 to 10 scale) ([8]; Preemergence, Rate 250 g/ha): 0
Morningglory plant response rating [8, 22]: 2
Plant response rating, Morningglory [8, 23]: 0
Redroot pigweed plant response rating [9, 17]: 0
Plant response rating, Redroot pigweed [9, 19]: 0
Redroot pigweed plant response rating [9, 20]: 0
Redroot pigweed plant response rating [9, 21]: 7
Redroot pigweed plant response rating (0 to 10 scale) ([9]; Preemergence, Rate 250 g/ha): 9
Plant response rating, Redroot pigweed [9, 23]: 0
Rape plant response rating [10, 17]: 2
Rape plant response rating [10, 18]: 6
Rape plant response rating [10, 20]: 0
Rape plant response rating [10, 21]: 3
Rape plant response rating (0 to 10 scale) ([10]; Preemergence, Rate 250 g/ha): 3
Plant response rating, Rape [10, 23]: 7
Soybean plant response rating [11, 17]: 1
Soybean plant response rating [11, 20]: 0
Soybean plant response rating [11, 21]: 0
Soybean plant response rating (0 to 10 scale) ([11]; Preemergence, Rate 250 g/ha): 0
Soybean plant response rating [11, 22]: 3
Plant response rating, Soybean [11, 23]: 3
Sugarbeets plant response rating [12, 17]: 0
Plant response rating, Sugarbeets [12, 19]: 2
Sugarbeets plant response rating [12, 20]: 0
Sugarbeets plant response rating [12, 21]: 3
Sugarbeets plant response rating (0 to 10 scale) ([12]; Preemergence, Rate 250 g/ha): 3
Plant response rating, Sugarbeets [12, 23]: 0
Velvetleaf plant response rating [13, 20]: 0
Velvetleaf plant response rating [13, 21]: 0
Velvetleaf plant response rating (0 to 10 scale) ([13]; Preemergence, Rate 250 g/ha): 0
Velvetleaf plant response rating [13, 22]: 2
Plant response rating, Velvetleaf [13, 23]: 5
Wheat plant response rating [14, 17]: 0
Plant response rating, Wheat [14, 19]: 3
Wheat plant response rating [14, 21]: 0
Wheat plant response rating (0 to 10 scale) ([14]; Preemergence, Rate 250 g/ha): 0
Plant response rating, Wheat [14, 23]: 0
Wild oats plant response rating [15, 17]: 0
Plant response rating, Wild oats [15, 19]: 2
Wild oats plant response rating [15, 20]: 0
Wild oats plant response rating [15, 21]: 0
Wild oats plant response rating (0 to 10 scale) ([15]; Preemergence, Rate 250 g/ha): 3
Plant response rating, Wild oats [15, 23]: 2
Nutsedge plant response rating [16, 17]: 0
Nutsedge plant response rating [16, 18]: 0
Nutsedge plant response rating [16, 20]: 0
Nutsedge plant response rating [16, 21]: 0
Nutsedge plant response rating (0 to 10 scale) ([16]; Preemergence, Rate 250 g/ha): 0
Nutsedge plant response rating [16, 22]: 0
Plant response rating, Nutsedge [16, 23]: 0

CCn1ncc(Cn2c(=O)on(C(=O)N(c3ccc(F)cc3)C(C)C)c2=O)c1Cl [Compound 686]
Bedstraw plant response rating [1, 24]: 0
Plant response rating, Bedstraw [1, 25]: 0
Plant response rating, Bedstraw [1, 26]: 0
Plant response rating, Bedstraw [1, 22]: 0
Blackgrass plant response rating [2, 24]: 4
Plant response rating, Blackgrass [2, 25]: 7
Plant response rating, Blackgrass [2, 26]: 8
Plant response rating, Blackgrass [2, 22]: 9
B. signalgrass plant response rating [3, 24]: 2
Plant response rating, B. signalgrass [3, 25]: 5
Plant response rating, B. signalgrass [3, 26]: 7
Plant response rating, B. signalgrass [3, 22]: 9
Cocklebur plant response rating [4, 24]: 0
Plant response rating, Cocklebur [4, 26]: 0
Plant response rating, Cocklebur [4, 22]: 0
Corn plant response rating [5, 24]: 0
Plant response rating, Corn [5, 25]: 0
Plant response rating, Corn [5, 26]: 0
Crabgrass plant response rating [6, 24]: 8
Plant response rating, Crabgrass [6, 25]: 9
Plant response rating, Crabgrass [6, 26]: 10
Giant foxtail plant response rating [7, 24]: 9
Plant response rating, Giant foxtail [7, 25]: 9
Morningglory plant response rating [8, 24]: 0
Plant response rating, Morningglory [8, 25]: 0
Redroot pigweed plant response rating [9, 24]: 0
Plant response rating, Redroot pigweed [9, 25]: 6
Rape plant response rating [10, 24]: 0
Plant response rating, Rape [10, 25]: 0
Soybean plant response rating [11, 24]: 0
Plant response rating, Soybean [11, 25]: 0
Sugarbeets plant response rating [12, 24]: 0
Plant response rating, Sugarbeets [12, 25]: 0
Velvetleaf plant response rating [13, 24]: 0
Plant response rating, Velvetleaf [13, 25]: 0
Wheat plant response rating [14, 24]: 0
Plant response rating, Wheat [14, 25]: 0
Wild oats plant response rating [15, 24]: 0
Plant response rating, Wild oats [15, 25]: 1
Nutsedge plant response rating [16, 24]: 0
Plant response rating, Nutsedge [16, 25]: 0
